Read-outs that look alike come from different tables or passages of the source.
Assays:
Format in all cases: biochemical
NEK7(h) = molecular target: T1, NEK7(h) (Homo sapiens, UniProt Q8TDX7); assay: Kinase panel
T1 construct: purchased Millipore KinaseProfiler

EGFR(h) = molecular target: T2, EGFR(h) (Homo sapiens, UniProt P00533); assay: Kinase panel
T2 construct: purchased Millipore KinaseProfiler

PAK6(h) = molecular target: T3, PAK6(h) (Homo sapiens, UniProt Q9NQU5); assay: Kinase panel
T3 construct: purchased Millipore KinaseProfiler
T3 sequence (Q9NQU5 whole entry): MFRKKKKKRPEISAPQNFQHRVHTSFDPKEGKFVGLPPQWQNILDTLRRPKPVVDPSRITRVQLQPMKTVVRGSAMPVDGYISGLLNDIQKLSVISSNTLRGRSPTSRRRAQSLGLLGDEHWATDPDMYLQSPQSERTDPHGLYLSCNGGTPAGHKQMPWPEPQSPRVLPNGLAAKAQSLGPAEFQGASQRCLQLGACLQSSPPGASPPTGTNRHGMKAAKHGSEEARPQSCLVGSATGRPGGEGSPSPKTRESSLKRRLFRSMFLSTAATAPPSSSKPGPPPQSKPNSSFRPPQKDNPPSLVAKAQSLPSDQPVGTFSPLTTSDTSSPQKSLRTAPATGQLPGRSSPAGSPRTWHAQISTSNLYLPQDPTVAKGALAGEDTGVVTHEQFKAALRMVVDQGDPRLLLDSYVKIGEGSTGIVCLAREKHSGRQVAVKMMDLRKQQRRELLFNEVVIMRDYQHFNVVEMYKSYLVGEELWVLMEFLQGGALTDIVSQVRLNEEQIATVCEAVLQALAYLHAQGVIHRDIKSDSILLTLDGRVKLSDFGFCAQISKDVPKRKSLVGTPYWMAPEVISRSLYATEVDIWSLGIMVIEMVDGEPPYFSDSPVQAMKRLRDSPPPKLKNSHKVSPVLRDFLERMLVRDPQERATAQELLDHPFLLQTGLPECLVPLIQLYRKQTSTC

FGFR2(h) = molecular target: T4, FGFR2(h) (Homo sapiens, UniProt P21802); assay: Kinase panel
T4 construct: purchased Millipore KinaseProfiler

CK1γ1(h) = molecular target: T5, CK1γ1(h) (Homo sapiens, UniProt Q9HCP0); assay: Kinase panel
T5 construct: purchased Millipore KinaseProfiler

EGFR(L861Q)(h) = molecular target: T6, EGFR(L861Q)(h) (Homo sapiens, UniProt P00533, L861Q); assay: Kinase panel
T6 construct: purchased Millipore KinaseProfiler
T6 sequence (P00533 25-1210 L861Q): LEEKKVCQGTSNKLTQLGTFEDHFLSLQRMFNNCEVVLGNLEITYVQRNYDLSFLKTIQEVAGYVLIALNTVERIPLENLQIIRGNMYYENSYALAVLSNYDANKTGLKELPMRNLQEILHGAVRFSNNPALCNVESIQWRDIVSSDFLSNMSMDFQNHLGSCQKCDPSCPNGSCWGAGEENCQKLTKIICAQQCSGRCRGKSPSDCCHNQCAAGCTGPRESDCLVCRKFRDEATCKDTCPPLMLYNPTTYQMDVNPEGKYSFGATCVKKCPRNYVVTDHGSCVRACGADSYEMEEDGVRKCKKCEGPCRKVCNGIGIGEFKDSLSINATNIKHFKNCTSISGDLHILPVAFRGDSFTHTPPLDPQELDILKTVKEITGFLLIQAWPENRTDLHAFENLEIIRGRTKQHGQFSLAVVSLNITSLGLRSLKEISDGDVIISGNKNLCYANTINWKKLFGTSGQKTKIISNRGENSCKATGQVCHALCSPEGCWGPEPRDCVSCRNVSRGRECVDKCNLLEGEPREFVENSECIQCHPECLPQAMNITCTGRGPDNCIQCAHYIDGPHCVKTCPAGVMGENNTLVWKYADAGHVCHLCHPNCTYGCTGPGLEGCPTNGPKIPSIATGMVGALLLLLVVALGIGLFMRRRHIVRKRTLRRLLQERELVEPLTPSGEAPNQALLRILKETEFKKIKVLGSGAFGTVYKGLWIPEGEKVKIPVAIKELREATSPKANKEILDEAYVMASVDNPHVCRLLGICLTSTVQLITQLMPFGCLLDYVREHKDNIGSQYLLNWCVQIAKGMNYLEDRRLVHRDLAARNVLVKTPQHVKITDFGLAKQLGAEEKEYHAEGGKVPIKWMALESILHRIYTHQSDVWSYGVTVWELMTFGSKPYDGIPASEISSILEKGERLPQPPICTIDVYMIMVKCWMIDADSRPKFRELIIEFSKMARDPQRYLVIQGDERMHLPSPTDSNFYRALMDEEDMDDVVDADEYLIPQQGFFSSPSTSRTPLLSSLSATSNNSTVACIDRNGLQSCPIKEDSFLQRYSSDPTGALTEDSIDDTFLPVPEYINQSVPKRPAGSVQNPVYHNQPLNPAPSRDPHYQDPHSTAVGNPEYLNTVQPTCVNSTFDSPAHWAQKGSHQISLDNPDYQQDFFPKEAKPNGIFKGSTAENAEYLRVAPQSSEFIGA

PKCμ(h) = molecular target: T7, PKCμ(h) (Homo sapiens, UniProt Q15139); assay: Kinase panel
T7 construct: purchased Millipore KinaseProfiler
T7 sequence (Q15139 1-912): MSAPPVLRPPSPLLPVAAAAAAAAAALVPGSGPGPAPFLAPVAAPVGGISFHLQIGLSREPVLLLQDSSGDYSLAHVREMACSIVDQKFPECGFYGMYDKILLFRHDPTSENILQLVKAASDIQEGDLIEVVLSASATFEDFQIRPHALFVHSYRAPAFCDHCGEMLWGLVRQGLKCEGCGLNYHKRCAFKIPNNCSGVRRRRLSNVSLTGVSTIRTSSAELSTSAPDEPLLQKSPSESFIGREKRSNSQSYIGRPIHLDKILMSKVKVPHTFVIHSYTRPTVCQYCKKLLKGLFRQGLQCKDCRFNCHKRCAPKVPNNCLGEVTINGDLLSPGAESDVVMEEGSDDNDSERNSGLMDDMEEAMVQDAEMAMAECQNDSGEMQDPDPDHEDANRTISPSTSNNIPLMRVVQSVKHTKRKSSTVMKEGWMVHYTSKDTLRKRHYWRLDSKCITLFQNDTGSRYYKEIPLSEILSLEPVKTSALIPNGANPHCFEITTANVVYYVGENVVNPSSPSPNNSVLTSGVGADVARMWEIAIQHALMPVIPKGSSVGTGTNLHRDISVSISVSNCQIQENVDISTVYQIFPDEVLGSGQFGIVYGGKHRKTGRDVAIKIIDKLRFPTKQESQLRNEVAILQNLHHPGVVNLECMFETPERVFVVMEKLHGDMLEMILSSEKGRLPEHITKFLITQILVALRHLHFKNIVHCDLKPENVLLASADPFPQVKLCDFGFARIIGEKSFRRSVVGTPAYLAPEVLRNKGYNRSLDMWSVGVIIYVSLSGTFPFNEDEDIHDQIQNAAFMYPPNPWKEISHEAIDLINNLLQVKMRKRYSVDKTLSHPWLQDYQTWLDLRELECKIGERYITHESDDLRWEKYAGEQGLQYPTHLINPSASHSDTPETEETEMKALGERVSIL

PTK5(h) = molecular target: T8, PTK5(h) (Homo sapiens, UniProt P42685); assay: Kinase panel
T8 construct: purchased Millipore KinaseProfiler
T8 sequence (P42685 whole entry): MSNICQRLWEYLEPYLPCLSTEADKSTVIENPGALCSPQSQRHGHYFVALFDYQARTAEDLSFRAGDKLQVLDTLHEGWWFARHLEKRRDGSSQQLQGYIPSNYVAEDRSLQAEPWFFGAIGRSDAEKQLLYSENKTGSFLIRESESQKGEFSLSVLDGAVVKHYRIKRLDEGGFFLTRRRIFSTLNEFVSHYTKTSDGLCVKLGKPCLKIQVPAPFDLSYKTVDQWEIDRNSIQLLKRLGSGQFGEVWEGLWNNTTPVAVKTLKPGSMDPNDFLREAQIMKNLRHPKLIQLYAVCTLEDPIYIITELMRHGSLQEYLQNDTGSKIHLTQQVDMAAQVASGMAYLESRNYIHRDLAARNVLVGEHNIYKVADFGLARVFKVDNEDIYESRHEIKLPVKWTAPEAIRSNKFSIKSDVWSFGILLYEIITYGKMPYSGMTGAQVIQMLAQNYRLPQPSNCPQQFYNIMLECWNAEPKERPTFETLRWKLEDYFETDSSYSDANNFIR

Snk(h) = molecular target: T9, Snk(h) (Homo sapiens, UniProt Q9NYY3); assay: Kinase panel
T9 construct: purchased Millipore KinaseProfiler

Plk3(h) = molecular target: T10, Plk3(h) (Homo sapiens, UniProt Q9H4B4); assay: Kinase panel
T10 construct: purchased Millipore KinaseProfiler
T10 sequence (Q9H4B4 whole entry): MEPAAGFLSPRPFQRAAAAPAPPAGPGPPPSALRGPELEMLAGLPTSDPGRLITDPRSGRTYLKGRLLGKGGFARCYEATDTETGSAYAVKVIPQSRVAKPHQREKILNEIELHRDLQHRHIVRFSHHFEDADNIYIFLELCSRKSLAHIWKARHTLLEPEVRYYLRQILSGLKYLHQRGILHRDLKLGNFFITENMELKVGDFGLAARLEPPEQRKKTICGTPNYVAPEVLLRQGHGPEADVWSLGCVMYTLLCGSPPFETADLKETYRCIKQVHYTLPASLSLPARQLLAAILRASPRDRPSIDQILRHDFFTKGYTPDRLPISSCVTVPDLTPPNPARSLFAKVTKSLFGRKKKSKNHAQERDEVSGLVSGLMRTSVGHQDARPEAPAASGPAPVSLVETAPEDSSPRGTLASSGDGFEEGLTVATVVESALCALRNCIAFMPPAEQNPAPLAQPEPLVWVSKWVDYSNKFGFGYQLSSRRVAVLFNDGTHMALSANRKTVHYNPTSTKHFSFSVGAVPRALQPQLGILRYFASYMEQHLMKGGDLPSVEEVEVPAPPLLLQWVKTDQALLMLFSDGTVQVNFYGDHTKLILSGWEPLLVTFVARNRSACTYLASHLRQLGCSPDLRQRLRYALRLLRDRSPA

MKK4(m) = molecular target: T11, MKK4(m) (Mus musculus, UniProt P47809); assay: Kinase panel
T11 construct: purchased Millipore KinaseProfiler
T11 sequence (P47809 2-397 limits assumed): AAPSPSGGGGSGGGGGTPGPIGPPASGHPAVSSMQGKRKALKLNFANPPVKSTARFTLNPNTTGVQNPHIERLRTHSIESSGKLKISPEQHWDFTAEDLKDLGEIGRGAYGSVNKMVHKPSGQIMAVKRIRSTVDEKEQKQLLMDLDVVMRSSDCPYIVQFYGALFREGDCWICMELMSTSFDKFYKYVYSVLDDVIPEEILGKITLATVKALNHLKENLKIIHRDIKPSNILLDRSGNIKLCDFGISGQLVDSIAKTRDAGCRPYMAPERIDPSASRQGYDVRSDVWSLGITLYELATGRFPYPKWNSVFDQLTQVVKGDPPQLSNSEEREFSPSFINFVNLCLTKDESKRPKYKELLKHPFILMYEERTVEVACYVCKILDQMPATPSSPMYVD

MAPK1(h) = molecular target: T12, MAPK1(h) (Homo sapiens, UniProt P27361); assay: Kinase panel
T12 construct: purchased Millipore KinaseProfiler
T12 sequence (P27361 whole entry): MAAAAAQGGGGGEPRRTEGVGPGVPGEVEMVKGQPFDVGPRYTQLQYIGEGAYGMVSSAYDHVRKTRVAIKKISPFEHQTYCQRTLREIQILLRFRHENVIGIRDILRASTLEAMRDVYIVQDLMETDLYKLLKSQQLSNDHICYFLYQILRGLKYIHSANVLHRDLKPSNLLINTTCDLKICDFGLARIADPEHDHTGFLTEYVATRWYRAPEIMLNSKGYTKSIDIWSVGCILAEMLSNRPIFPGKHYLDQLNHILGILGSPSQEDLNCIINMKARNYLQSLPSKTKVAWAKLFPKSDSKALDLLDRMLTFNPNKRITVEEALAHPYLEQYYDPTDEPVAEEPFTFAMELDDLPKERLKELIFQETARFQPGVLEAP

PDK1(h) = molecular target: T13, PDK1(h) (Homo sapiens, UniProt O15530); assay: Kinase panel
T13 construct: purchased Millipore KinaseProfiler
T13 sequence (O15530 1-556): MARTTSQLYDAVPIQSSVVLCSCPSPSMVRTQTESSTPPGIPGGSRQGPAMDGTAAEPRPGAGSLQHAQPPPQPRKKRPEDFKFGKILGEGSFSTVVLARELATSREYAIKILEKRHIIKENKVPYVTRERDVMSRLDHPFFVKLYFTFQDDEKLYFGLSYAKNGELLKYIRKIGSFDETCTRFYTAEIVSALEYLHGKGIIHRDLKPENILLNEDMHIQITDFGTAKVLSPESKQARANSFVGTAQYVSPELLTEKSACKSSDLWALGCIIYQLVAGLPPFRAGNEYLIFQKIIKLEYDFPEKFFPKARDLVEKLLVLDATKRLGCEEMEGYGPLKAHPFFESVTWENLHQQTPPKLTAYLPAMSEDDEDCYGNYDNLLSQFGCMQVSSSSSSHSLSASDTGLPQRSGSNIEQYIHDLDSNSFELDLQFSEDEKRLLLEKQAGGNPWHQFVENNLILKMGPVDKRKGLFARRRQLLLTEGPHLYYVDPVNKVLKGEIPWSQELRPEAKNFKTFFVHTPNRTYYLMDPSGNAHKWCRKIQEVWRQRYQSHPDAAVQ

PKCμ = PKCμ (Homo sapiens, UniProt Q15139); assay: Kinase IC50 assay

T2 sequence (P00533 25-1210): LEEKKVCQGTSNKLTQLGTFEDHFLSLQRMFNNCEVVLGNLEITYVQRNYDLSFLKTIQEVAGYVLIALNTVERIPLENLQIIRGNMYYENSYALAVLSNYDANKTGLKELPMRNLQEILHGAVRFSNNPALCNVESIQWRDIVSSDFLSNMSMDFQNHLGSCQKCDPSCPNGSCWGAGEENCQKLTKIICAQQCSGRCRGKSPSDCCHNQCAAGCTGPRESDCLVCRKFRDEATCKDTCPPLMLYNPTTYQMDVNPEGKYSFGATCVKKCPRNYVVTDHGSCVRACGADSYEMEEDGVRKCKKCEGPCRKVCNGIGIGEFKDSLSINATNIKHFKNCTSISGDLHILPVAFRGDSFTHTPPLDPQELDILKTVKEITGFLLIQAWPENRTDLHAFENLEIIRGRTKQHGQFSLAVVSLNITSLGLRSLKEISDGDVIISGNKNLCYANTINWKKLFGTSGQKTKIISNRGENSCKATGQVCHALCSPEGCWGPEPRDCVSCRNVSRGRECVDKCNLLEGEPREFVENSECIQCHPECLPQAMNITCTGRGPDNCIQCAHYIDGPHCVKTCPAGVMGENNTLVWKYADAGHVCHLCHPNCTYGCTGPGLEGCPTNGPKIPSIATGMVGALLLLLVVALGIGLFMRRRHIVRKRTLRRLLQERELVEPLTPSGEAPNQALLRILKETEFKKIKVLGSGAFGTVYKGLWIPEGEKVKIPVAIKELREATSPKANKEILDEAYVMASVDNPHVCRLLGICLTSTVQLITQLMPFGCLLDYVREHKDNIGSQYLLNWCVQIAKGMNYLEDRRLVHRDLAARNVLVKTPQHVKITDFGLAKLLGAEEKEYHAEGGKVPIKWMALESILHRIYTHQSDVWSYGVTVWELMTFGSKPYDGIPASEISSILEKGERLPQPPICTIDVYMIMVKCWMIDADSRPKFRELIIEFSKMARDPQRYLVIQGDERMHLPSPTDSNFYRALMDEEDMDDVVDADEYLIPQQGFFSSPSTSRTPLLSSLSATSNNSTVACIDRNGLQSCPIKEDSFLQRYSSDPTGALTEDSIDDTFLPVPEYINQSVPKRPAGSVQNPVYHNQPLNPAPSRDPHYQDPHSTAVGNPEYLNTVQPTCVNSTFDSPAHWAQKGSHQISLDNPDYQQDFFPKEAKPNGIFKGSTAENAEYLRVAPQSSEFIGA
T1 sequence (Q8TDX7 whole entry): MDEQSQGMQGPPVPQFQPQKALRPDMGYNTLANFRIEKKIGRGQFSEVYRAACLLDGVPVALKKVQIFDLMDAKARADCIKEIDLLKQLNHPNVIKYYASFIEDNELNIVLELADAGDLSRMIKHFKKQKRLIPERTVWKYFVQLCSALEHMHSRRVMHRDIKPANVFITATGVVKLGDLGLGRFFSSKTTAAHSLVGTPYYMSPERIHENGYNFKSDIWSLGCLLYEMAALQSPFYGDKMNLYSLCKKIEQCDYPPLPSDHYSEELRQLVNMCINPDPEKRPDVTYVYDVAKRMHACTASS

Work on `Cn1ncc(Cl)c1-c1cc(C(=O)N[C@H](CN)Cc2cccc(F)c2)sc1Cl` [GSK2110183] yielded an inhibition at 0.5 µM (NEK7(h)) of -8%, an inhibition at 10 µM (NEK7(h)) of -12% and an inhibition at 0.5 µM (EGFR(h)) of -4%. For the same compound, the inhibition at 10 µM (EGFR(h)) was 2%, the inhibition at 0.5 µM (PAK6(h)) was 13% and the inhibition at 10 µM (PAK6(h)) was 73%. For the same compound, the inhibition at 0.5 µM (FGFR2(h)) was 0%, the inhibition at 10 µM (FGFR2(h)) was -2% and the inhibition at 0.5 µM (CK1γ1(h)) was -1%. It also gave an inhibition at 10 µM (CK1γ1(h)) of 20%, an inhibition at 0.5 µM (EGFR(L861Q)(h)) of -4% and an inhibition at 10 µM (EGFR(L861Q)(h)) of 21%. It also gave an inhibition at 0.5 µM (PKCμ(h)) of 27%, an inhibition at 10 µM (PKCμ(h)) of 81% and an inhibition at 0.5 µM (PTK5(h)) of 4%. It also gave an inhibition at 10 µM (PTK5(h)) of 18%, an inhibition at 0.5 µM (Snk(h)) of -8% and an inhibition at 10 µM (Snk(h)) of 18%. For the same compound, the inhibition at 0.5 µM (Plk3(h)) was -3%, the inhibition at 10 µM (Plk3(h)) was 16% and the inhibition at 0.5 µM (MKK4(m)) was 25%. The inhibition at 10 µM (MKK4(m)) was 57%, the inhibition at 0.5 µM (MAPK1(h)) was -26% and the inhibition at 10 µM (MAPK1(h)) was 10%. The inhibition at 0.5 µM (PDK1(h)) was -12%, the inhibition at 10 µM (PDK1(h)) was -6% and the IC50 (PKCμ) was greater than 1000 nM.
With `Cn1ncc(Cl)c1-c1cc(C(=O)N[C@H](CN)Cc2ccc(F)c(F)c2)oc1Cl` [GSK2141795] the inhibition at 0.5 µM (NEK7(h); 0.5 µM, read-out: % Inhibition) was -9%, the inhibition at 10 µM (NEK7(h); 10 µM, read-out: % Inhibition) was -32% and the inhibition at 0.5 µM (EGFR(h); 0.5 µM, read-out: % Inhibition) was -42%. For the same compound, the inhibition at 10 µM (EGFR(h); 10 µM, read-out: % Inhibition) was -40%, the inhibition at 0.5 µM (PAK6(h); 0.5 µM, read-out: % Inhibition) was 11% and the inhibition at 10 µM (PAK6(h); 10 µM, read-out: % Inhibition) was 64%. For the same compound, the inhibition at 0.5 µM (FGFR2(h); 0.5 µM, read-out: % Inhibition) was -8%, the inhibition at 10 µM (FGFR2(h); 10 µM, read-out: % Inhibition) was 2% and the inhibition at 0.5 µM (CK1γ1(h); 0.5 µM, read-out: % Inhibition) was -6%. The inhibition at 10 µM (CK1γ1(h); 10 µM, read-out: % Inhibition) was 39%, the inhibition at 0.5 µM (EGFR(L861Q)(h); 0.5 µM, read-out: % Inhibition) was -13% and the inhibition at 10 µM (EGFR(L861Q)(h); 10 µM, read-out: % Inhibition) was 21%. It also gave an inhibition at 0.5 µM (PKCμ(h); 0.5 µM, read-out: % Inhibition) of 37%, an inhibition at 10 µM (PKCμ(h); 10 µM, read-out: % Inhibition) of 91% and an inhibition at 0.5 µM (PTK5(h); 0.5 µM, read-out: % Inhibition) of 11%. It also gave an inhibition at 10 µM (PTK5(h); 10 µM, read-out: % Inhibition) of 70%, an inhibition at 0.5 µM (Snk(h); 0.5 µM, read-out: % Inhibition) of -12% and an inhibition at 10 µM (Snk(h); 10 µM, read-out: % Inhibition) of 15%. It also gave an inhibition at 0.5 µM (Plk3(h); 0.5 µM, read-out: % Inhibition) of -7%, an inhibition at 10 µM (Plk3(h); 10 µM, read-out: % Inhibition) of 59% and an inhibition at 0.5 µM (MKK4(m); 0.5 µM, read-out: % Inhibition) of 8%. The inhibition at 10 µM (MKK4(m); 10 µM, read-out: % Inhibition) was 36%, the inhibition at 0.5 µM (MAPK1(h); 0.5 µM, read-out: % Inhibition) was 4% and the inhibition at 10 µM (MAPK1(h); 10 µM, read-out: % Inhibition) was 58%. The inhibition at 0.5 µM (PDK1(h); 0.5 µM, read-out: % Inhibition) was 3%, the inhibition at 10 µM (PDK1(h); 10 µM, read-out: % Inhibition) was 19% and the IC50 (PKCμ) was 690 nM.

Source: paper PMC4076210, “Discovery of Novel AKT Inhibitors with Enhanced Anti-Tumor Effects in Combination with the MEK Inhibitor” (PLoS ONE, 2014)
